Assay results: patent publication US20190030139A1, “USP10 MODULATION OF AMPK AND MTOR” (MAYO FOUNDATION FOR MEDICAL EDUCATION AND RESEARCH, priority 2016, published 2019)

Columns and labels:
Ub-AMC = test: In vitro deubiquitinase enzymatic assay with Ub-AMC; type: biochemical; conditions: purified USP10 incubated with or without active AMPK (FIG. 9A)
Procedure: In vitro deubiquitinase enzymatic assay—In vitro enzymatic assays using ubiquitin-7-amido-4-methylcoumarin (Ub-AMC; U-550; Boston Biochem) were performed in 50-100 μl reaction buffer (20 mM HEPES-KOH [pH 7.8], 20 mM NaCl, 0.1 mg/ml ovalbumin [A7641; Sigma], 0.5 mM EDTA, and 10 mM DTT) at 25° C. Fluorescence was monitored in an INFINITE® M1000 PRO Fluorometer (TECAN).

AMPK [1] = test: AMPK in vitro kinase assay (32P incorporation into peptides); type: biochemical
Procedure: AMPK in vitro kinase assay—Purified AMPK (Upstate Biotechnology) was incubated with various substrates (0.5 μg) in kinase reaction buffer (15 mM HEPES, pH 7.0, 1 mm dithiothreitol, 18.75 mM MgCl2, 1.25 mM EGTA, and 125 μM ATP and 12.5 μCi of radiolabeled ATP, with or without 150 μM AMP, at 30° C. for 30 minutes. The product was separated by SDS-PAGE and subjected to autoradiography. Phosphorylation was detected by incorporation of radiolabeled [γ-32P] ATP. To study the stoichiometry of phosphorylation of the USP10 S76 [TLPRTPSYSISST (SEQ ID NO:19), synthesized by Peptide 2.0] and SAMS (Abcam) peptides by AMPK, the peptides (20 μM) were individually incubated in 100 μl of reaction buffer at 30° C. Aliquots (10 μl) were removed at various times to measure ^32P incorporation.

cancer cells = test: Survival of cancer cells with and without USP10 after treatment with everolimus; type: cell-based
Excerpt: FIGS. 12A and 12B are pictures of immunoblots from co-immuno-precipitation assays showing that USP10 interacts with mTOR. […] FIG. 12D is a graph plotting survival of cancer cells with and without USP10, after treatment with the mTOR inhibitor, everolimus. […] FIG. 12E is a graph plotting survival of cancer cells with and without USP10 knockdown by shRNA, after treatment with everolimus.

ubiquitinated AMPKα = test: In vitro deubiquitination of AMPKα; type: biochemical; conditions: bacterially-expressed USP10, ubiquitinated AMPKα substrate (FIGS. 3H and 4C)
Excerpt: In vitro deubiquitination of AMPKα—To prepare ubiquitinated AMPKα as the substrate for the in vitro deubiquitination assay, HCT116 cells were transfected with both HA-Ub and FLAG-AMPKα. […] Following extensive washing with the FLAG-lysis buffer, proteins were eluted with FLAG-peptides (Sigma). The recombinant His-USP10 and USP10CA polypeptides were expressed in BL21 cells and purified with the His-tag purification column (Novagen). For the in vitro deubiquitination assay, ubiquitinated AMPK protein was incubated with recombinant USP10 in a deubiquitination buffer (50 mM Tris-HCl pH 8.0, 50 mM NaCl, 1 mM EDTA, 10 mM DTT, 5% glycerol) overnight at 16° C.

AMPK [2] = test: Immunoblot of AMPK activation in HCT116 cells treated with Spautin-1; type: cell-based; conditions: indicated concentration of Spautin-1, immunoblot (FIG. 1I)
Procedure: FIG. 1A is a picture of an immunoblot showing the effect of USP10 knockdown on AMPK activation. HCT116 cells were infected with lentivirus encoding the indicated shRNAs. Cell lysates were immunoblotted as indicated. FIGS. 1B and 1C are a picture (FIG. 1B) and a graph (FIG. 1C) showing Oil-Red-O staining of HCT116 cells with or without shRNA knockdown of USP10. Control or USP10 knockdown HCT116 cells were incubated in medium supplemented with 200 μM sodium oleate overnight (20 hours) and fixed with formalin. The intracellular lipid droplet abundance was assessed by Oil-Red-O staining. The results represent the means (±SEM) of three independent experiments. **, p<0.01. FIG. 1D is a graph plotting lactate concentration in HCT116 cells. Lactate production was measured after incubation of control and USP10 knockdown HCT116 cells in medium for 48 hours. […] FIG. 1E is a graph plotting relative expression of aldoa, ldha, and pdkl mRNA in control or USP10 knockdown HCT116 cells, as determined by qPCR. Transcript levels were determined relative to actin mRNA levels, and normalized relative to control cells. […] The intracellular lipid droplet abundance was assessed by Oil-Red-O staining. […] The relative expression of aldoa, ldha, and pdkl mRNA in the indicated cells was determined by qPCR. Transcript levels were determined relative to actin mRNA levels, and normalized relative to control cells. […]

## phosphorylated USP10: USP10 phosphorylated using active AMPK in vitro
Ub-AMC
  deubiquitinase activity toward Ub-AMC: much higher activity toward Ub-AMC

## S76A mutant: USP10 with S76 mutated to Ala
Ub-AMC
  deubiquitinase activity toward Ub-AMC: remained low

## USP10 peptide: synthesized USP10 S76 peptide TLPRTPSYSISST (SEQ ID NO:19) (listed as Homo sapiens)
AMPK [1]; after 30 minutes of incubation, calculated from FIG. 8D data (FIG. 8E)
  maximal stoichiometry of phosphorylation by AMPK: 0.46±0.04 mol/mol
AMPK [1]; peptide 20 μM, 30° C., mean ±SEM of three experiments (FIG. 8D)
  initial rate of phosphorylation by AMPK: 155±36 pmol/min/reaction mix

## CO[C@H]1C[C@@H]2CC[C@@H](C)[C@@](O)(O2)C(=O)C(=O)N2CCCC[C@H]2C(=O)O[C@H]([C@H](C)C[C@@H]2CC[C@@H](OCCO)[C@H](OC)C2)CC(=O)[C@H](C)/C=C(\C)[C@@H](O)[C@@H](OC)C(=O)[C@H](C)C[C@H](C)/C=C/C=C/C=C/1C [everolimus]
Cancer cells; USP10 shRNA knockdown vs control shRNA (FIG. 12E)
  survival of cancer cells: greater effect on survival of USP10 knockdown cells than on cells treated with a control shRNA
Cancer cells; cells with vs without USP10 (FIG. 12D)
  survival of cancer cells: decreased in the absence of USP10

## WT USP10: recombinant wild type USP10 deubiquitinase (SEQ ID NO:2), bacterially expressed
Ubiquitinated AMPKα
  deubiquitination of AMPKα in vitro: removed ubiquitin chain from AMPKα

## Fc1ccc(CNc2ncnc3ccc(F)cc23)cc1 [Spautin-1]
AMPK [2]
  AMPK activation: largely inhibited
